According to patent publication US20230002357A1, “7-PYRIMIDINE-2-YL-OXY-INDAZOLE DERIVATIVES AND THEIR USE AS HERBICIDES” (SYNGENTA CROP PROTECTION AG, priority 2019, published 2023):

Experiments:
Format in all cases: in vivo
Conditions in all cases: 250 g/ha, evaluated after 13 days
[1] = test system: Echinochloa crus-galli (ECHCG); assay: Post-emergence Test, glasshouse, ECHCG
Experimental: (§1) Seeds of a variety of test species are sown in standard soil in pots Amaranthus retoflexus (AMARE), Echinochloa crus-galli (ECHCG), Setaria faberi (SETFA)). After cultivation for one day (pre-emergence) or after 8 days cultivation (post-emergence) under controlled conditions in a glasshouse (at 24/16° C., day/night; 14 hours light; 65% humidity), the plants are sprayed with an aqueous spray solution derived from the formulation of the technical active ingredient in acetone/water (50:50) solution containing 0.5% Tween™ 20 (polyoxyethelyene sorbitan monolaurate, CAS RN 9005-64-5). Compounds are applied at 250 g/ha unless otherwise stated. The test plants are then grown in a glasshouse under controlled conditions in a glasshouse (at 24/16° C., day/night; 14 hours light; 65% humidity) and watered twice daily. After 13 days for pre- and post-emergence, the test is evaluated for the percentage damage caused to the plant. The biological activities are shown in the following table on a five-point scale (5=81-100%; 4=61-80%; 3=41-60%; 2=21-40%; 1=0-20%).

Setaria faberi (SETFA) [2] = assay: Post-emergence Test, glasshouse, SETFA
Experimental: as §1

Setaria faberi (SETFA) [3] = assay: Pre-emergence Test, glasshouse, SETFA
Experimental: as §1

[4] = test system: Amaranthus retoflexus (AMARE); assay: Post-emergence Test, glasshouse, AMARE
Experimental: as §1

ABUTH [5] = assay: Post-emergence Test, glasshouse, ABUTH
Experimental: as §1

[6] = test system: Echinochloa crus-galli (ECHCG); assay: Pre-emergence Test, glasshouse, ECHCG
Experimental: as §1

IPOHE [7] = assay: Pre-emergence Test, glasshouse, IPOHE
Experimental: as §1

ABUTH [8] = assay: Pre-emergence Test, glasshouse, ABUTH
Experimental: as §1

[9] = test system: Amaranthus retoflexus (AMARE); assay: Pre-emergence Test, glasshouse, AMARE
Experimental: as §1

IPOHE [10] = assay: Post-emergence Test, glasshouse, IPOHE
Experimental: as §1

SMILES | percentage damage caused to the plant, five-point scale, ECHCG [1] | percentage damage caused to the plant, five-point scale, SETFA (Setaria faberi (SETFA) [2]) | percentage damage caused to the plant, five-point scale, SETFA (Setaria faberi (SETFA) [3]) | percentage damage caused to the plant, five-point scale, AMARE [4] | percentage damage caused to the plant, five-point scale, ABUTH (ABUTH [5]) | percentage damage caused to the plant, five-point scale, ECHCG [6] | percentage damage caused to the plant, five-point scale, IPOHE (IPOHE [7]) | percentage damage caused to the plant, five-point scale, ABUTH (ABUTH [8]) | percentage damage caused to the plant, five-point scale, AMARE [9] | percentage damage caused to the plant, five-point scale, IPOHE (IPOHE [10])
FC(F)(F)CCCn1nc(Cl)c2cccc(Oc3ncc(Cl)cn3)c21 [Compound 1.005, 3-chloro-7-(5-chloropyrimidin-2-yl)oxy-1-(4,4,4-trifluorobutyl)indazole] | 5 (5=81-100%) | 5 (5=81-100%) | 5 (5=81-100%) | 5 (5=81-100%) | 5 (5=81-100%) | 5 (5=81-100%) | 1 (1=0-20%) | 3 (3=41-60%) | 5 (5=81-100%) | 3 (3=41-60%)
Fc1cc(Cl)cnc1Oc1cccc2c(Cl)nn(CCCC(F)(F)F)c12 [Compound 1.032] | 3 (3=41-60%) |  | 4 (4=61-80%) | 5 (5=81-100%) | 3 (3=41-60%) | 3 (3=41-60%) | 1 (1=0-20%) | 1 (1=0-20%) | 3 (3=41-60%) | 3 (3=41-60%)
N#Cc1cc(Oc2ncc(Cl)cn2)c2c(cnn2CCCC(F)(F)F)c1 [Compound 1.024] |  | 1 (1=0-20%) | 4 (4=61-80%) | 2 (2=21-40%) | 2 (2=21-40%) |  | 1 (1=0-20%) | 1 (1=0-20%) | 4 (4=61-80%) | 1 (1=0-20%)
COc1cc(Oc2cccc3nnn(CCCC(F)(F)F)c23)ncn1 [Compound 1.023] |  | 1 (1=0-20%) | 1 (1=0-20%) | 1 (1=0-20%) | 1 (1=0-20%) |  | 1 (1=0-20%) | 1 (1=0-20%) | 1 (1=0-20%) | 1 (1=0-20%)
FC(F)(F)CCCn1nc(Cl)c2c(Cl)cc(Cl)c(Oc3ncc(Cl)cn3)c21 [Compound 1.027] | 4 (4=61-80%) | 3 (3=41-60%) | 1 (1=0-20%) | 4 (4=61-80%) | 2 (2=21-40%) |  | 1 (1=0-20%) | 1 (1=0-20%) | 4 (4=61-80%) | 1 (1=0-20%)
FC(F)(F)CCCn1ncc2c(Br)ccc(Oc3ncc(Cl)cn3)c21 [Compound 1.025] |  | 2 (2=21-40%) | 2 (2=21-40%) | 2 (2=21-40%) | 2 (2=21-40%) |  | 1 (1=0-20%) | 1 (1=0-20%) | 1 (1=0-20%) | 1 (1=0-20%)
Cc1nn(CCCC(F)(F)F)c2c(Oc3ncc(Cl)cn3)cccc12 [Compound 1.021, 7-(5-chloropyrimidin-2-yl)oxy-3-methyl-1-(4,4,4-trifluorobutyl)indazole] |  | 4 (4=61-80%) | 5 (5=81-100%) | 1 (1=0-20%) | 4 (4=61-80%) |  | 2 (2=21-40%) | 3 (3=41-60%) | 5 (5=81-100%) | 3 (3=41-60%)
FC(F)(F)CCCn1ncc2c(Cl)cc(Cl)c(Oc3ncc(Cl)cn3)c21 [Compound 1.018] | 1 (1=0-20%) | 1 (1=0-20%) | 1 (1=0-20%) | 1 (1=0-20%) | 1 (1=0-20%) | 1 (1=0-20%) | 1 (1=0-20%) | 1 (1=0-20%) |  | 1 (1=0-20%)
FC(F)(F)CCCn1nc(C(F)(F)F)c2cccc(Oc3ncc(Cl)cn3)c21 [Compound 1.022, 7-(5-chloropyrimidin-2-yl)oxy-1-(4,4,4-trifluorobutyl)-3-(trifluoromethyl)indazole] |  | 5 (5=81-100%) | 5 (5=81-100%) | 5 (5=81-100%) | 5 (5=81-100%) | 5 (5=81-100%) | 4 (4=61-80%) | 4 (4=61-80%) | 5 (5=81-100%) | 4 (4=61-80%)
N#Cc1cc(Oc2ncc(Cl)cn2)c2c(c1)c(Cl)nn2CCCC(F)(F)F [Compound 1.030] | 2 (2=21-40%) | 2 (2=21-40%) | 1 (1=0-20%) | 4 (4=61-80%) | 1 (1=0-20%) |  | 1 (1=0-20%) | 1 (1=0-20%) | 1 (1=0-20%) | 1 (1=0-20%)
FC(F)(F)CCCn1nc(Cl)c2c(Br)ccc(Oc3ncc(Cl)cn3)c21 [Compound 1.028] |  | 3 (3=41-60%) | 2 (2=21-40%) | 5 (5=81-100%) | 2 (2=21-40%) |  | 1 (1=0-20%) | 1 (1=0-20%) | 4 (4=61-80%) | 1 (1=0-20%)
N#Cc1ccc(Oc2ncc(Cl)cn2)c2c1c(Cl)nn2CCCC(F)(F)F [Compound 1.029] |  | 1 (1=0-20%) | 1 (1=0-20%) | 4 (4=61-80%) | 1 (1=0-20%) |  | 1 (1=0-20%) | 1 (1=0-20%) | 2 (2=21-40%) | 1 (1=0-20%)
FC(F)(F)CCCn1nc(Cl)c2c(Cl)ccc(Oc3ncc(Cl)cn3)c21 [Compound 1.026] |  | 5 (5=81-100%) | 3 (3=41-60%) | 5 (5=81-100%) | 4 (4=61-80%) | 5 (5=81-100%) | 1 (1=0-20%) | 2 (2=21-40%) | 5 (5=81-100%) | 2 (2=21-40%)
FC(F)(F)CCCn1nnc2cccc(Oc3ncc(Cl)cn3)c21 [Compound 1.020, 7-(5-chloropyrimidin-2-yl)oxy-1-(4,4,4-trifluorobutyl) benzotriazole] |  | 5 (5=81-100%) | 5 (5=81-100%) | 2 (2=21-40%) | 3 (3=41-60%) |  | 2 (2=21-40%) | 4 (4=61-80%) | 5 (5=81-100%) | 2 (2=21-40%)
